Data as given in US20160002204A1 (Board of Regents, The University of Texas System, priority 2014, published 2016).

Assays:
[1] = target: T1, GLS1 (purified recombinant human GAC) (Homo sapiens, UniProt O94925); assay: GLS1 enzymatic activity assay (dual-coupled, Amplex UltraRed/resorufin); type: biochemical
T1 sequence (O94925 55-598 isoform O94925-3 limits assumed): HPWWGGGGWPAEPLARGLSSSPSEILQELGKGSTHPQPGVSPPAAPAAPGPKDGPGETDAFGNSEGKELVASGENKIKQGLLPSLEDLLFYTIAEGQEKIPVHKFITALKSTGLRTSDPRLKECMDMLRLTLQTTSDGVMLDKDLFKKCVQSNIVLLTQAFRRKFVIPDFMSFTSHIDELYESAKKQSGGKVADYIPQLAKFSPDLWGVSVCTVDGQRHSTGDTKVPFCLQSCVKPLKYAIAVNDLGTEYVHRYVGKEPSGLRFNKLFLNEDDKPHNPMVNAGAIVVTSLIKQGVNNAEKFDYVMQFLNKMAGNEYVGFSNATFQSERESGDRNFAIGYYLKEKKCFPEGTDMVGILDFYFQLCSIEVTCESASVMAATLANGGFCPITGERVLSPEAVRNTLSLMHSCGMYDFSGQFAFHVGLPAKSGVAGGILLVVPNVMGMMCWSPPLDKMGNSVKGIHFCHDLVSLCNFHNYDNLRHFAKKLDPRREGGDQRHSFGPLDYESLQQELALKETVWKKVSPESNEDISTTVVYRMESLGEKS
Outline: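 In this coupled fluorometric format, phosphate-activated GAC (2 nM, 50 mM phosphate) is pre-exposed to compound for 10 min before 1 mM glutamine addition. Product is tracked as resorufin (530/590 nm) over time or at 20 min, and potency is derived by logistic fitting.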

A549 cells = assay: A549 proliferation (viability) assay, Cell Titer Fluor, 72 hours; type: cell-based; settings: Homo sapiens
Outline: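 1000 A549 cells/well, RPMI 1640/10% dialyzed FBS, 24 h attach; compound 72 h, 0.5% DMSO, 37 °C/5% CO2; Cell Titer Fluor fluorescence; EC50 via 4-parameter logistic.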

IC50 [1] [nM] | EC50 (A549 cells) [nM] | Compound
< 100 | < 100 | O=C(CN1CCC(F)(F)CC1)Nc1ccn(CCC(F)Cn2cc(C(=O)NCc3cc(C(F)(F)F)ccn3)nn2)c(=O)c1F (centres unmarked) [Example 416, 1-(4-{4-[2-(4,4-difluoropiperidin-1-yl)acetamido]-3-fluoro-2-oxo-1,2-dihydropyridin-1-yl}-2-fluorobutyl)-N-{[4-(trifluoromethyl)pyridin-2-yl]methyl}-1H-1,2,3-triazole-4-carboxamide]
100 to 500 | 500 to 5000 | O=C(Nc1ccn(CCC(F)Cn2cc(C(=O)NCc3cccc(OC(F)(F)F)c3)nn2)c(=O)c1F)C(=O)N1CCOCC1 (centres unmarked) [Example 417, 1-(2-fluoro-4-{3-fluoro-4-[2-(morpholin-4-yl)-2-oxoacetamido]-2-oxo-1,2-dihydropyridin-1-yl}butyl)-N-{[3-(trifluoromethoxy)phenyl]methyl}-1H-1,2,3-triazole-4-carboxamide]
< 100 | < 100 | O=C(Nc1ccn(CCC(F)Cn2cc(C(=O)NCc3cccc(C(F)(F)F)c3)nn2)c(=O)c1F)C(=O)N1CCCCC1 (centres unmarked) [Example 421, 1-(2-fluoro-4-{3-fluoro-2-oxo-4-[2-oxo-2-(piperidin-1-yl)acetamido]-1,2-dihydropyridin-1-yl}butyl)-N-{[3-(trifluoromethyl)phenyl]methyl}-1H-1,2,3-triazole-4-carboxamide]
< 100 | < 100 | O=C(Nc1ccn(CCC(F)Cn2cc(C(=O)NCc3cc(OC(F)(F)F)ccc3F)nn2)c(=O)c1F)C(=O)N1CCCCC1 (centres unmarked) [Example 422, 11-(2-fluoro-4-(3-fluoro-2-oxo-4-(2-oxo-2-(piperidin-1-yl)acetamido)pyridin-1(2H)-yl)butyl)-N-(2-fluoro-5-(trifluoromethoxy)benzyl)-1H-1,2,3-triazole-4-carboxamide]
< 100 | 100 to 500 | O=C(Nc1ccn(CCC(F)Cn2cc(C(=O)NCc3cc(C(F)(F)F)ccn3)nn2)c(=O)c1F)C(=O)N1CCCCC1 (centres unmarked) [Example 423, 1-(2-fluoro-4-{3-fluoro-2-oxo-4-[2-oxo-2-(piperidin-1-yl)acetamido]-1,2-dihydropyridin-1-yl}butyl)-N-{[4-(trifluoromethyl)pyridin-2-yl]methyl}-1H-1,2,3-triazole-4-carboxamide]
< 100 | 100 to 500 | O=C(Nc1ccn(CCC(F)Cn2cc(C(=O)NCc3cccc(OC(F)(F)F)c3)nn2)c(=O)c1F)C(=O)N1CC2(CCC2)C1 (centres unmarked) [Example 424, 1-{4-[4-(2-{2-azaspiro[3.3]heptan-2-yl}-2-oxoacetamido)-3-fluoro-2-oxo-1,2-dihydropyridin-1-yl]-2-fluorobutyl}-N-{[3-(trifluoromethoxy)phenyl]methyl}-1H-1,2,3-triazole-4-carboxamide]
500 to 5000 | 500 to 5000 | O=C(Nc1ccn(CCC(F)Cn2cc(C(=O)NCc3ccccn3)nn2)c(=O)c1F)C(=O)N1CCCCC1 (centres unmarked) [Example 427, 1-(2-fluoro-4-{3-fluoro-2-oxo-4-[2-oxo-2-(piperidin-1-yl)acetamido]-1,2-dihydropyridin-1-yl}butyl)-N-(pyridin-2-ylmethyl)-1H-1,2,3-triazole-4-carboxamide]
< 100 | < 100 | C[C@@H]1CCN(C(=O)C(=O)Nc2ccn(CCC(F)Cn3cc(C(=O)NCc4cc(OC(F)(F)F)ccc4F)nn3)c(=O)c2F)C1 (stereo partly drawn) [Example 431, 1-[2-fluoro-4-(3-fluoro-4-{2-[(3R)-3-methylpyrrolidin-1-yl]-2-oxoacetamido}-2-oxo-1,2-dihydropyridin-1-yl)butyl]-N-{[2-fluoro-5-(trifluoromethoxy)phenyl]methyl}-1H-1,2,3-triazole-4-carboxamide]
< 100 | < 100 | C[C@H]1CCN(C(=O)C(=O)Nc2ccn(CCC(F)Cn3cc(C(=O)NCc4cc(OC(F)(F)F)ccc4F)nn3)c(=O)c2F)C1 (stereo partly drawn) [Example 432, 1-[2-fluoro-4-(3-fluoro-4-{2-[(3S)-3-methylpyrrolidin-1-yl]-2-oxoacetamido}-2-oxo-1,2-dihydropyridin-1-yl)butyl]-N-{[2-fluoro-5-(trifluoromethoxy)phenyl]methyl}-1H-1,2,3-triazole-4-carboxamide]

The next lines start with the compound.

Compound | IC50 [1] [nM] | EC50 (A549 cells) [nM]
O=C(CN1CC2CC(C2)C1)Nc1ccn(CCC(F)Cn2cc(C(=O)NCc3cc(C(F)(F)F)ccn3)nn2)c(=O)c1F (centres unmarked) [Example 415, 1-{4-[4-(2-{3-azabicyclo[3.1.1]heptan-3-yl}acetamido)-3-fluoro-2-oxo-1,2-dihydropyridin-1-yl]-2-fluorobutyl}-N-{[4-(trifluoromethyl)pyridin-2-yl]methyl}-1H-1,2,3-triazole-4-carboxamide] | < 100 | < 100
CC1CCCN(C(=O)C(=O)Nc2ccn(CCC(F)Cn3cc(C(=O)NCc4cccc(OC(F)(F)F)c4)nn3)c(=O)c2F)C1 (centres unmarked) [Example 418, 1-(2-fluoro-4-{3-fluoro-4-[2-(3-methylpiperidin-1-yl)-2-oxoacetamido]-2-oxo-1,2-dihydropyridin-1-yl}butyl)-N-{[3-(trifluoromethoxy)phenyl]methyl}-1H-1,2,3-triazole-4-carboxamide] | < 100 | < 100
O=C(Nc1ccn(CCC(F)Cn2cc(C(=O)NCc3cccc(OC(F)(F)F)c3)nn2)c(=O)c1F)C(=O)N1CCCC(C(F)(F)F)C1 (centres unmarked) [Example 419, 1-[2-fluoro-4-(3-fluoro-2-oxo-4-{2-oxo-2-[3-(trifluoromethyl)piperidin-1-yl]acetamido}-1,2-dihydropyridin-1-yl)butyl]-N-{[3-(trifluoromethoxy)phenyl]methyl}-1H-1,2,3-triazole-4-carboxamide] | < 100 | < 100
N#CC1CCCN(C(=O)C(=O)Nc2ccn(CCC(F)Cn3cc(C(=O)NCc4cccc(OC(F)(F)F)c4)nn3)c(=O)c2F)C1 (centres unmarked) [Example 420, 1-(4-{4-[2-(3-cyanopiperidin-1-yl)-2-oxoacetamido]-3-fluoro-2-oxo-1,2-dihydropyridin-1-yl}-2-fluorobutyl)-N-{[3-(trifluoromethoxy)phenyl]methyl}-1H-1,2,3-triazole-4-carboxamide] | < 100 | 500 to 5000
CCN(CC)C(=O)C(=O)Nc1ccn(CCC(F)Cn2cc(C(=O)NCc3cccc(OC(F)(F)F)c3)nn2)c(=O)c1F (centres unmarked) [Example 425, N,N-diethyl-N′-(3-fluoro-1-{3-fluoro-4-[4-({[3-(trifluoro-methoxy)phenyl]methyl}carbamoyl)-1H-1,2,3-triazol-1-yl]butyl}-2-oxo-1,2-dihydropyridin-4-yl)ethanediamide] | < 100 | 100 to 500
O=C(Nc1ccn(CCC(F)Cn2cc(C(=O)NCc3cccc(OC(F)(F)F)c3)nn2)c(=O)c1F)C(=O)N1CCCC(O)C1 (centres unmarked) [Example 426, 1-(2-fluoro-4-{3-fluoro-4-[2-(3-hydroxypiperidin-1-yl)-2-oxoacetamido]-2-oxo-1,2-dihydropyridin-1-yl}butyl)-N-{[3-(trifluoromethoxy)phenyl]methyl}-1H-1,2,3-triazole-4-carboxamide] | < 100 | 500 to 5000
CC1(C)CN(C(=O)C(=O)Nc2ccn(CCC(F)Cn3cc(C(=O)NCc4cccc(OC(F)(F)F)c4)nn3)c(=O)c2F)C1 (centres unmarked) [Example 428, 1-(4-{4-[2-(3,3-dimethylazetidin-1-yl)-2-oxoacetamido]-3-fluoro-2-oxo-1,2-dihydropyridin-1-yl}-2-fluorobutyl)-N-{[3-(trifluoromethoxy)phenyl]methyl}-1H-1,2,3-triazole-4-carboxamide] | < 100 | < 100
CNC(=O)c1cn(CC(F)CCn2ccc(NC(=O)C(=O)N3CCCCC3)c(F)c2=O)nn1 (centres unmarked) [Example 429, 1-(2-fluoro-4-{3-fluoro-2-oxo-4-[2-oxo-2-(piperidin-1-yl)acetamido]-1,2-dihydropyridin-1-yl}butyl)-N-methyl-1H-1,2,3-triazole-4-carboxamide] | 500 to 5000 | 500 to 5000
Nc1ccn(CCC(F)Cn2cc(C(=O)NCc3cc(OC(F)(F)F)ccc3F)nn2)c(=O)c1F (centres unmarked) [Example 430, 1-[4-(4-amino-3-fluoro-2-oxo-1,2-dihydropyridin-1-yl)-2-fluorobutyl]-N-{[2-fluoro-5-(trifluoromethoxy)phenyl]methyl}-1H-1,2,3-triazole-4-carboxamide] | 500 to 5000 | > 5000
COC1CCCN(C(=O)C(=O)Nc2ccn(CCC(F)Cn3cc(C(=O)NCc4cc(OC(F)(F)F)ccc4F)nn3)c(=O)c2F)C1 (centres unmarked) [Example 433, 1-(2-fluoro-4-{3-fluoro-4-[2-(3-methoxypiperidin-1-yl)-2-oxoacetamido]-2-oxo-1,2-dihydropyridin-1-yl}butyl)-N-{[2-fluoro-5-(trifluoromethoxy)phenyl]methyl}-1H-1,2,3-triazole-4-carboxamide] | < 100 | 100 to 500
